Here are results for 7 molecules from ChEMBL document CHEMBL3608283, “Pyrrolopyridine or Pyrazolopyridine Derivatives” (ACS Med Chem Lett, 2015).

Numbering of substitutions follows the chain as printed.

The target of experiment [1] is T1, Muscarinic acetylcholine receptor M1 (Rattus norvegicus, UniProt P08482).
T1 sequence (P08482 whole entry): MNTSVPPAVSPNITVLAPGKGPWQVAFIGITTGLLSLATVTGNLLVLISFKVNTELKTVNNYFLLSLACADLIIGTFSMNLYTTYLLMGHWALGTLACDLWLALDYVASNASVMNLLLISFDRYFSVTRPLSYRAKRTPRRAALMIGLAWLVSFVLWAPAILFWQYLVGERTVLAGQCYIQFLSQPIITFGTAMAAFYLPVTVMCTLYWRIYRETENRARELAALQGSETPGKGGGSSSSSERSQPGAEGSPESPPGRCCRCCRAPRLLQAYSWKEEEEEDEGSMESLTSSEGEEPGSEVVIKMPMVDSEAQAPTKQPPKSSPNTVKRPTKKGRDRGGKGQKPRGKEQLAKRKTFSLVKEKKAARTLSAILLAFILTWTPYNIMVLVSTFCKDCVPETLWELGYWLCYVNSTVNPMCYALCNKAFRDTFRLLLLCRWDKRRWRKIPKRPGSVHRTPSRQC
Put plainly: Positive allosteric modulation of rat muscarinic M1 receptor expressed in CHO cells assessed as basal and acetylcholine-stimulated Ca2+ level by FLIPR assay. Type of experiment: functional, cell-based.

Experiment [2] addresses T2, Muscarinic acetylcholine receptor M1 (Homo sapiens, UniProt P11229).
T2 sequence (P11229 whole entry): T1 sequence (P08482 whole entry) with V5A, S254T, S309P, K320R, G337A, V413I
The experiment in a line: Positive allosteric modulation of human muscarinic M1 receptor expressed in CHO cells assessed as basal and acetylcholine-stimulated Ca2+ level by FLIPR assay. It counts as functional, cell-based.

Consider `Cn1cc(-c2ccc(Cn3cc(C(=O)N[C@H]4COCC[C@@H]4O)c4ncccc43)cc2F)cn1`, for which the figures for the EC50 in experiment [1] and in experiment [2] were 18 nM and 15.5 nM, respectively.
In the case of `Cn1cc(-c2ccc(Cn3cc(C(=O)N[C@H]4CCOC[C@@H]4O)c4ncccc43)c(F)c2)cn1`, the EC50 was determined as 58.6 nM in experiment [1] and 28.5 nM in experiment [2].
As to `Cn1ncc2cc(Cn3cc(C(=O)N[C@H]4COCC[C@@H]4O)c4ncccc43)ccc21`, the EC50 turned out to be 162 nM in experiment [1] and 71.5 nM in experiment [2].
Taken in the same sequence, the figures for `Cn1cc(-c2ccc(Cn3cc(C(=O)N[C@H]4CCOC[C@@]4(C)O)c4ncccc43)c(F)c2)cn1` were 63.2 nM and 47.9 nM.
In the case of `Cn1cc(-c2ccc(Cn3cc(C(=O)N[C@H]4COCC[C@@H]4O)c4ncccc43)cn2)cn1`, the EC50 was determined as 71.1 nM in experiment [1] and 34.8 nM in experiment [2].
Regarding `Cn1cc(-c2ccc(Cn3cc(C(=O)N[C@H]4COCC[C@@H]4O)c4ncccc43)cc2)cn1`, the EC50 in experiment [1] is 13.8 nM; in experiment [2], 11.1 nM.
As for `CNC(=O)c1ccc(Cn2cc(C(=O)N[C@H]3COCC[C@@H]3O)c3ncccc32)cc1`, the values for the EC50 in experiment [1] and in experiment [2] were 18 nM and 9.1 nM, respectively.

As usually defined, the EC50 is the midpoint of the concentration-response curve.
